Several values for one entry are separate records, joined by “and”; a condition that tells them apart may be missing. Equal values may be shown once. Inconclusive results are not listed. Activity calls are given as the source filed them.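 Rule for the calls: active = inhibition with a half-effect concentration no higher than twice the top valid dose tested; inconclusive = flat fit inhibiting 30 to 70%, or a poor fit; inactive = effect in the wrong direction, plus the rest.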

Tested on in the first test: not listed separately
Briefly: antifungal activity under osmotic support – alamar blue, sorbitol added, dry powder, counter-screen for C. neoformans cell wall antifungals, dose response (AID 743123). The following applies: C. neoformans, alamar blue, sorbitol counter-screen, 24 h; at 35 µM (top of the series).
Take `O=c1[nH]c2ccccc2n1CCOc1ccccc1`: the activity change, negative = inhibition was -36.6% (inactive).

Regarding `c1ccc(OCCn2cnc3ccccc32)cc1`, the activity change, negative = inhibition is -38.4% (inactive).

`Cc1cccc(OCCn2c(=S)[nH]c3cc(C(F)(F)F)ccc32)c1`: the activity change, negative = inhibition is -32% (inactive).

`CCOC(=O)c1c(-c2ccc(F)cc2)csc1NC(=O)CN1CCN(C)CC1`: the activity change, negative = inhibition is -15.2% (inactive).

Turning to `Cc1ccc(OCCn2c(C)nc3ccccc32)cc1`, the activity change, negative = inhibition is -59.3% (inactive).

For another test, the system named is C. neoformans, alamar blue, sorbitol counter-screen, 24 h. Described as above.
Settings: not given
For `CCOC(=O)c1c(-c2ccc(-c3ccccc3)cc2)csc1NC(=O)CNCCN(C)C`, the AC50 – broadly, the concentration at which the activity in the assay is half-maximal – is 19.9 µM.

As for `COC(=O)C1=C(C)N(Cc2ccc(F)cc2)C(=S)NC1c1cccc(F)c1` (stereo not given), the AC50 is 24.2 µM.

As to `Cc1ccc(OCCn2c(SCCO)nc3ccccc32)c(C(C)C)c1`, the AC50 was 7.62 µM.

For the molecule `Fc1cccc2c1[nH]c(=S)n2CCOc1ccccc1`, the AC50 is 31.9 µM.

In the case of `Cc1ccc(C(C)C)c(OCCn2c(=S)[nH]c3ccccc32)c1`, the AC50 is 10.1 µM.

Turning to `CCOC(=O)c1c(-c2ccc(C(C)(C)C)cc2)csc1NC(=O)CN1CCN(C)CC1`, the AC50 is 13.7 µM.

On to `Cc1ccc(OCCn2c(=S)[nH]c3ccccc32)c(C(C)C)c1`, for which the AC50 is 8.54 µM and 9.18 µM.

For `COC(=O)C1=C(C)N(Cc2ccc(Br)cc2)C(=S)NC1c1ccc(F)cc1` (stereo not given), the AC50 was 5.99 µM.

Consider `S=c1[nH]c2ccccc2n1CCOc1ccc(Cl)cc1`, for which the AC50 is 14.7 µM.

Regarding `Cc1ccc(OCCn2cnc3ccccc32)cc1`, the AC50 is 7.76 µM.

As to `COC(=O)C1=C(C)N(Cc2ccccc2)C(=S)NC1c1ccc(Br)cc1` (stereo not given), the AC50 was 9.1 µM.

Turning to `S=c1[nH]c2cccc(Cl)c2n1CCOc1ccccc1`, the AC50 is 11.6 µM.

Consider `CCOc1ccc(OCCn2c(=S)[nH]c3ccccc32)cc1`, for which the AC50 was 24.1 µM.

Take `CCOC(=O)c1c(-c2ccc(C(C)(C)C)cc2)csc1NC(=O)CN1CCN(CC)CC1`: the AC50 is 14.6 µM.

Turning to `Cc1ccc2c(c1)[nH]c(=S)n2CCOc1ccccc1`, the AC50 is 27.1 µM.

With `Fc1ccccc1OCCn1c(=S)[nH]c2ccccc21`, the AC50 was 36.2 µM.

Take `S=c1[nH]c2ccccc2n1CCOc1ccccc1`: the AC50 is 28.5 µM.

With `Cc1ccccc1OCCn1c(=S)[nH]c2ccccc21`, the AC50 is 9.99 µM.

Take `CCOC(=O)c1c(-c2ccc(F)cc2)csc1NC(=O)CN1CCN(CC)CC1`: the AC50 is 36.1 µM.

Regarding `COC(=O)C1=C(C)N(Cc2ccc(Br)cc2)C(=S)NC1c1ccc(OC)cc1` (stereo not given), the AC50 is 23.9 µM.

For `CCOC(=O)c1c(NC(=O)CN2CCN(C)CC2)sc(C)c1-c1ccc(C)cc1`, the AC50 is 16.9 µM.

As to `CCOC(=O)c1c(-c2ccc(OC)cc2)csc1NC(=O)CN(C)CC(=O)N(C)C`, the AC50 was 13.9 µM.

Regarding `Cc1ccc(OCCn2c(=S)[nH]c3ccccc32)cc1`, the AC50 was 10.9 µM.

As for `CCOC(=O)c1c(NC(=O)CNCCN(C)C)sc(C)c1-c1ccccc1`, the AC50 is 1.09 µM.

In the case of `COC(=O)C1=C(C)N(Cc2ccc(Cl)cc2)C(=S)NC1c1ccc(Br)cc1` (stereo not given), the AC50 was 3.11 µM.

(Values after PubChem BioAssay AID743123 (Broad Institute, 2013).)
